Earlier results, collected in article PMC6105163, “Abaloparatide Exerts Bone Anabolic Effects with Less Stimulation of Bone Resorption-Related Factors: A Comparison with Teriparatide” (Calcified Tissue International, 2018).

Key:
[1] = test system: patients with osteoporosis; conditions: cited from earlier work
osteocytes = conditions: ref [11], [12]; cited from earlier work
Source text: The mechanism of action of TPTD on bone turnover is not fully understood; however, many studies have examined the molecular mechanisms in recent decades. According to a previous study, PTH(1–34) acts on osteoblasts and indirectly induces bone resorption by activating osteoclasts. PTH(1–34) increases the expression of receptor activator of nuclear factor kappa-B ligand (RANKL) and macrophage colony-stimulating factor (M-CSF) and decreases the expression of osteoprotegerin (OPG), a decoy receptor of RANKL [9]. These effects of PTH(1–34) further promote the maturation of osteoclasts with ... || Finally, we evaluated the effects of ABL on WNT signaling antagonists. WNT signaling antagonists such as sclerostin and DKK1 are secreted from osteocytes. They inhibit bone formation by antagonizing canonical WNT ligands and subsequently suppress WNT-mediated signaling pathways. […] We therefore evaluated the effects of ABL on WNT signaling antagonists in comparison with TPTD. It is generally known that human osteocytes have been diffic ...

cAMP and PKC = conditions: ref [24]; cited from earlier work
Source text: There is another possibility that the two peptides could show the different activity on protein kinase C (PKC). PKC is the downstream signal of PTH1R and is involved in the stimulation of bone resorption-related factors and bone catabolism. In fact, ostabolin, an amidated form of human PTH(1–31), differs from PTH(1–34) in PKC activation.

[2] = subcutaneous injection, ref [14]

[Glu^22,25, Leu^23,28,31, Aib^29, Lys^26,30] human PTHrP(1–34)–NH2 [Abaloparatide]
BMD at the hip and spine ([1]; daily subcutaneous, ref [14]): robust BMD increases | incidence of vertebral and non-vertebral fractures ([1]; daily subcutaneous, ref [14]): reduced incidence | calcemic effect vs TPTD ([1]; human, in vivo, sc): reduced as compared with TPTD | bone formation and resorption markers ([1]; ref [14]): increased both bone formation and resorption | bone formation and resorption markers vs TPTD ([1]; ref [14]): attenuated as compared with TPTD | bone formation marker [1, 2]: increased | bone resorption marker vs TPTD [1, 2]: less stimulation of the bone resorption marker than observed for TPTD

human PTH(1–34) [Teriparatide]
expression of WNT signaling antagonists in osteocytes (osteocytes): inhibited | secretion of WNT signaling antagonists such as sclerostin and DKK1 (osteocytes): inhibiting | cAMP accumulation and PKC activation (cAMP and PKC): stimulated both cAMP and PKC
